From US7943770B2, “Fused quinoline derivative and use thereof” (Takeda Pharmaceutical Company Limited, priority 2004, dated 2011) come the findings set out here.

Usually IC50 stands for the concentration that gives 50% inhibition. Read a low IC50 as higher potency.

In this assay the target is T1, hNK2 receptor (Homo sapiens, UniProt P21452).
T1 construct: host or cells: CHO cells
T1 sequence (P21452 1-398): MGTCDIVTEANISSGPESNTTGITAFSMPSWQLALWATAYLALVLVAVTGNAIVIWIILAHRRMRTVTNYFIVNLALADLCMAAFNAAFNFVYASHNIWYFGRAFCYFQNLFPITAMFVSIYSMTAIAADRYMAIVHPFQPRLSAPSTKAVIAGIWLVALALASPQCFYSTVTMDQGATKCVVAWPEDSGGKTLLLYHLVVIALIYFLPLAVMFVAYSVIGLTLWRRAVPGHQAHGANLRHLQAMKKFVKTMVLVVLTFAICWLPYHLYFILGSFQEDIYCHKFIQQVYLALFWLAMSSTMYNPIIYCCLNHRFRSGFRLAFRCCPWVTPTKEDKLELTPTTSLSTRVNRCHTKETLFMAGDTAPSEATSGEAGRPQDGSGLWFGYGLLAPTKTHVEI
The assay can be described thus: Radio-ligand ([125I]-NKA) receptor binding inhibitory activity using membrane fraction of hNK2 receptor-expressing CHO cell. Conditions: membrane fraction of hNK2 receptor-expressing CHO cells, 25° C., 30 min. The method, boiled down: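 Membranes from hNK2-expressing CHO cells (20 μg/mL suspension) incubated with test compound and [125I]-NKA ([…] solution as added) in Tris-HCl pH 7.4 with BSA, protease inhibitors, 3 mM MnCl2, 25 °C, 30 min. Bound radioactivity by GF/C filtration and scintillation; inhibition expressed relative to specific binding (total minus unlabeled-NKA non-specific).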
`COC[C@@H]1Nc2ccccc2[C@H]2[C@@H]1CCN2C(=O)[C@H]1CCCC[C@H]1NC(=O)c1ccc(-n2ccnc2)cc1` [Example 250, 4-(1H-Imidazol-1-yl)-N-((1R,2S)-2-{[(3aR,4R,9bR)-4-(methoxymethyl)-2,3,3a,4,5,9b-hexahydro-1H-pyrrolo[3,2-c]quinolin-1-yl]carbonyl}cyclohexyl)benzamide] showed an IC50 of under 1 nM.

Regarding `COC[C@@H]1Nc2ccccc2[C@H]2[C@@H]1CCN2C(=O)[C@H]1CCCC[C@H]1NC(=O)c1ccc(N2N=C(C)CC2=O)cc1` [Example 252, N-((1R,2S)-2-{[(3aR,4R,9bR)-4-(Methoxymethyl)-2,3,3a,4,5,9b-hexahydro-1H-pyrrolo[3,2-c]quinolin-1-yl]carbonyl}cyclohexyl)-4-(3-methyl-5-oxo-4,5-dihydro-1H-pyrazol-1-yl)benzamide], the IC50 is under 1 nM.

In turn, `COC[C@@H]1Nc2ccccc2[C@H]2[C@@H]1CCN2C(=O)[C@H]1CCCC[C@H]1NC(=O)c1ccc2ncsc2c1` [Example 253, N-((1R,2S)-2-{[(3aR,4R,9bR)-4-(Methoxymethyl)-2,3,3a,4,5,9b-hexahydro-1H-pyrrolo[3,2-c]quinolin-1-yl]carbonyl}cyclohexyl)-1,3-benzothiazole-6-carboxamide] registered an IC50 of under 10 nM.

For `COC[C@@H]1Nc2ccccc2[C@H]2[C@@H]1CCN2C(=O)[C@H]1CCCC[C@H]1NC(=O)c1ccc(N2CCCCC2)nc1` [Example 254, N-((1R,2S)-2-{[(3aR,4R,9bR)-4-(Methoxymethyl)-2,3,3a,4,5,9b-hexahydro-1H-pyrrolo[3,2-c]quinolin-1-yl]carbonyl}cyclohexyl)-6-piperidin-1-ylnicotinamide], the IC50 was under 1 nM.

On to `COC[C@@H]1Nc2ccccc2[C@H]2[C@@H]1CCN2C(=O)[C@H]1CCCC[C@H]1NC(=O)c1ccc(C#N)c(C)c1` [Example 256, 4-Cyano-N-((1R,2S)-2-{[(3aR,4R,9bR)-4-(methoxymethyl)-2,3,3a,4,5,9b-hexahydro-1H-pyrrolo[3,2-c]quinolin-1-yl]carbonyl}cyclohexyl)-3-methylbenzamide], for which the IC50 was under 1 nM.

In turn, `COC[C@@H]1Nc2ccccc2[C@H]2[C@@H]1CCN2C(=O)[C@H]1CCCC[C@H]1NC(=O)c1ccc(-n2cccc2)cc1` [Example 258, N-((1R,2S)-2-{[(3aR,4R,9bR)-4-(Methoxymethyl)-2,3,3a,4,5,9b-hexahydro-1H-pyrrolo[3,2-c]quinolin-1-yl]carbonyl}cyclohexyl)-4-(1H-pyrrol-1-yl)benzamide] came in with an IC50 of under 1 nM.

Compound `COC[C@@H]1Nc2ccccc2[C@H]2[C@@H]1CCN2C(=O)[C@H]1CCCC[C@H]1NC(=O)c1ccc2[nH]cnc2c1` [Example 259, N-((1R,2S)-2-{[(3aR,4R,9bR)-4-(Methoxymethyl)-2,3,3a,4,5,9b-hexahydro-1H-pyrrolo[3,2-c]quinolin-1-yl]carbonyl}cyclohexyl)-1H-benzimidazole-5-carboxamide] registered an IC50 of under 10 nM.

In turn, `COC[C@@H]1Nc2ccccc2[C@H]2[C@@H]1CCN2C(=O)[C@H]1CCCC[C@H]1NC(=O)c1ccc(-c2csc(C)n2)cc1` [Example 261, N-((1R,2S)-2-{[(3aR,4R,9bR)-4-(Methoxymethyl)-2,3,3a,4,5,9b-hexahydro-1H-pyrrolo[3,2-c]quinolin-1-yl]carbonyl}cyclohexyl)-4-(2-methyl-1,3-thiazol-4-yl)benzamide] had an IC50 of under 1 nM.

The compound `COC[C@@H]1Nc2ccccc2[C@H]2[C@@H]1CCN2C(=O)[C@H]1CCCC[C@H]1NC(=O)c1ccc(CNC(C)=O)cc1` [Example 263, 4-[(Acetylamino)methyl]-N-((1R,2S)-2-{[(3aR,4R,9bR)-4-(methoxymethyl)-2,3,3a,4,5,9b-hexahydro-1H-pyrrolo[3,2-c]quinolin-1-yl]carbonyl}cyclohexyl)benzamide] displayed an IC50 of under 10 nM.

Compound `COC[C@@H]1Nc2ccccc2[C@H]2[C@@H]1CCN2C(=O)[C@H]1CCCC[C@H]1NC(=O)c1ccc(-n2cccn2)cc1` [Example 264, N-((1R,2S)-2-{[(3aR,4R,9bR)-4-(Methoxymethyl)-2,3,3a,4,5,9b-hexahydro-1H-pyrrolo[3,2-c]quinolin-1-yl]carbonyl}cyclohexyl)-4-(1H-pyrazol-1-yl)benzamide] had an IC50 of under 1 nM.

In the case of `COC[C@@H]1Nc2ccccc2[C@H]2[C@@H]1CCN2C(=O)[C@H]1CCCC[C@H]1NC(=O)c1ccc(-n2cncn2)cc1` [Example 265, N-((1R,2S)-2-{[(3aR,4R,9bR)-4-(Methoxymethyl)-2,3,3a,4,5,9b-hexahydro-1H-pyrrolo[3,2-c]quinolin-1-yl]carbonyl}cyclohexyl)-4-(1H-1,2,4-triazol-1-yl)benzamide], the IC50 was under 1 nM.

For `COC[C@@H]1Nc2ccccc2[C@H]2[C@@H]1CCN2C(=O)[C@H]1CCCC[C@H]1NC(=O)c1ccc(NCCO)cc1` [Example 266, 4-[(2-Hydroxyethyl)amino]-N-((1R,2S)-2-{[(3aR,4R,9bR)-4-(methoxymethyl)-2,3,3a,4,5,9b-hexahydro-1H-pyrrolo[3,2-c]quinolin-1-yl]carbonyl}cyclohexyl)benzamide], the IC50 is under 10 nM.

In the case of `COC[C@@H]1Nc2ccccc2[C@H]2[C@@H]1CCN2C(=O)[C@H]1CCCC[C@H]1NC(=O)c1ccc(N2CCN(C)CC2)cc1` [Example 267, N-((1R,2S)-2-{[(3aR,4R,9bR)-4-(Methoxymethyl)-2,3,3a,4,5,9b-hexahydro-1H-pyrrolo[3,2-c]quinolin-1-yl]carbonyl}cyclohexyl)-4-(4-methylpiperazin-1-yl)benzamide], the IC50 is under 10 nM.

The compound `COC[C@@H]1Nc2ccccc2[C@H]2[C@@H]1CCN2C(=O)[C@H]1CCCC[C@H]1NC(=O)c1ccc(N2CCOCC2)cc1` [Example 268, N-((1R,2S)-2-{[(3aR,4R,9bR)-4-(Methoxymethyl)-2,3,3a,4,5,9b-hexahydro-1H-pyrrolo[3,2-c]quinolin-1-yl]carbonyl}cyclohexyl)-4-morpholin-4-benzamide] displayed an IC50 of under 10 nM.

`COC[C@@H]1Nc2ccccc2[C@H]2[C@@H]1CCN2C(=O)[C@H]1CCCC[C@H]1NC(=O)c1ccc2c(c1)OCCN2C` [Example 269, N-((1R,2S)-2-{[(3aR,4R,9bR)-4-(Methoxymethyl)-2,3,3a,4,5,9b-hexahydro-1H-pyrrolo[3,2-c]quinolin-1-yl]carbonyl}cyclohexyl)-4-methyl-3,4-dihydro-2H-1,4-benzoxazin-7-carboxamide]: the IC50 was under 1 nM.

The compound `COC[C@@H]1Nc2ccccc2[C@H]2[C@@H]1CCN2C(=O)[C@H]1CCCC[C@H]1NC(=O)c1ccc(N(C)CCO)cc1` [Example 270, 4-[(2-Hydroxyethyl) (methyl)amino]-N-((1R,2S)-2-{[(3aR,4R,9bR)-4-(methoxymethyl)-2,3,3a,4,5,9b-hexahydro-1H-pyrrolo[3,2-c]quinolin-1-yl]carbonyl}cyclohexyl)benzamide] had an IC50 of under 10 nM.

Take `COC[C@@H]1Nc2ccccc2[C@H]2[C@@H]1CCN2C(=O)[C@H]1CCCC[C@H]1NC(=O)c1ccc(-n2ccnc2C)cc1` [Example 271, N-((1R,2S)-2-{[(3aR,4R,9bR)-4-(Methoxymethyl)-2,3,3a,4,5,9b-hexahydro-1H-pyrrolo[3,2-c]quinolin-1-yl]carbonyl}cyclohexyl)-4-(2-methyl-1H-imidazol-1-yl)benzamide]: the IC50 was under 10 nM.

Compound `COC[C@@H]1Nc2ccccc2[C@H]2[C@@H]1CCN2C(=O)[C@H]1CCCC[C@H]1NC(=O)c1ccc(-n2cnc(C)c2)cc1` [Example 272, N-((1R,2S)-2-{[(3aR,4R,9bR)-4-(Methoxymethyl)-2,3,3a,4,5,9b-hexahydro-1H-pyrrolo[3,2-c]quinolin-1-yl]carbonyl}cyclohexyl)-4-(4-methyl-1H-imidazol-1-yl)benzamide] gave an IC50 of under 1 nM.

The compound `COCCN(C)c1ccc(C(=O)N[C@@H]2CCCC[C@@H]2C(=O)N2CC[C@@H]3[C@H](COC)Nc4ccccc4[C@@H]32)cc1` [Example 273, 4-[(2-Methoxyethyl)(methyl)amino]-N-((1R,2S)-2-{[(3aR,4R,9bR)-4-(methoxymethyl)-2,3,3a,4,5,9b-hexahydro-1H-pyrrolo[3,2-c]quinolin-1-yl]carbonyl}cyclohexyl)benzamide] displayed an IC50 of under 1 nM.

The compound `COC[C@@H]1Nc2ccccc2[C@H]2[C@@H]1CCN2C(=O)[C@H]1CCCC[C@H]1NC(=O)c1ccc(C#N)c(OC)c1` [Example 274, 4-Cyano-3-methoxy-N-((1R,2S)-2-{[(3aR,4R,9bR)-4-(methoxymethyl)-2,3,3a,4,5,9b-hexahydro-1H-pyrrolo[3,2-c]quinolin-1-yl]carbonyl}cyclohexyl)benzamide] came in with a half-inhibitory concentration (IC50) of under 10 nM.

The compound `COC[C@@H]1Nc2ccccc2[C@H]2[C@@H]1CCN2C(=O)[C@H]1CCCC[C@H]1NC(=O)c1ccc(OC)c(C#N)c1` [Example 275, 3-Cyano-4-methoxy-N-((1R,2S)-2-{[(3aR,4R,9bR)-4-(methoxymethyl)-2,3,3a,4,5,9b-hexahydro-1H-pyrrolo[3,2-c]quinolin-1-yl]carbonyl}cyclohexyl)benzamide] displayed an IC50 of under 1 nM.

The compound `COC[C@@H]1Nc2ccccc2[C@H]2[C@@H]1CCN2C(=O)[C@H]1CCCC[C@H]1NC(=O)c1ccc2c(c1)nc(C)n2C` [Example 276, N-((1R,2S)-2-{[(3aR,4R,9bR)-4-(Methoxymethyl)-2,3,3a,4,5,9b-hexahydro-1H-pyrrolo[3,2-c]quinolin-1-yl]carbonyl}cyclohexyl)-1,2-dimethyl-1H-benzimidazole-5-carboxamide] showed an IC50 of under 10 nM.
